Assays:
Type in all cases: in vivo, rat
[1] = test system: Male Sprague Dawley rats; assay: Rotarod motor outcome after traumatic brain injury (impact acceleration model); conditions: i.v. at 30 minutes after injury, NK-1 antagonist 10 mg/kg, MK801 0.3 mg/kg, compared with saline vehicle, 24 h to 10 days post-injury
Description: (§1) Male Sprague Dawley rats (400±25 g) were pre-trained on both the Rotarod and Barnes maze so as to assess the effects of the compound on post-traumatic motor and cognitive outcome, respectively. After one week of training, rats were severely injured using the impact acceleration model of traumatic brain injury (2 meters) and administered either of the NK-1 receptor antagonist N-(3,5-bis-trifluoromethylbenzyl)-N-methyl-6-(4-methyl-piperazin-1-yl)-4-o-tolyl-nicotinamide (10 mg/kg i.v., based on active, free base), the NMDA (N-methyl-D-aspartate) antagonist MK801 ((+)-10,11-dihydro-5-methyl-5H-dibenzo[a,d]cyclo-hepten-5,10-diyldiammonium maleate; Dizocilpine maleate; 0.3 mg/kg i.v., based on active, free base) or 0.9% saline vehicle (n=10/group) at 30 minutes after injury.
Over the next 9 days, there was a gradual improvement in motor performance, however the deficit was always significant compared to pre-injury.

[2] = test system: Male Sprague Dawley rats; assay: Barnes maze cognitive outcome after traumatic brain injury; conditions: i.v. at 30 minutes after injury
Description: as §1
Prior to injury, rats were trained to locate an escape tunnel (from aversive sound and light) within 20 sec. This time factor depends on the ability of the animal to learn and remember the location of the escape tunnel.

[3] = test system: Male Sprague Dawley rats; assay: Mortality after severe traumatic brain injury; conditions: i.v. at 30 minutes after injury, saline 30%
Description: as §1
Mortality in rats in this severe model of injury is normally between 20 and 30%. In the saline treated animals, mortality was indeed 30%. […] This high mortality was consistent with this injury level being severe as confirmed by post mortem gross histological analysis of all brains.

[4] = test system: Male Sprague Dawley rats; assay: Evans Blue extravasation as marker of blood brain barrier permeability after traumatic brain injury; conditions: Evans Blue i.v. at 4.5 h after injury, circulating 30 mins, saline standardized to 100%
Description: Edema formation in the immediate post-traumatic period is thought to be vasogenic in origin, where increased permeability of the blood brain barrier permits protein extravasation and water accumulation in the brain interstitium. We used Evans Blue extravasation as a marker of blood brain permeability after traumatic brain injury and treatment with the NK-1 receptor antagonist N-(3,5-bis-trifluoromethyl-benzyl)-N-methyl-6-(4-methyl-piperazin-1-yl)-4-o-tolyl-nicotinamide.
At 4.5 h after induction of brain injury, animals were administered i.v. Evans Blue which was allowed to circulate for 30 mins. At that time point, animals were sacrificed and their brains removed for analysis of Evans Blue penetration. The amount of Evans Blue accumulation in the brains of saline treated animals was standardized to 100%. […] As anticipated, uninjured (sham) animals had no significant Evans Blue accumulation in brain tissue.

[5] = test system: Male Sprague Dawley rats; assay: Respiratory pattern and weaning off the ventilator after brain injury; conditions: brain injured rats
Description: as §1
This stability in respiration is thought to be due to both central effects on respiration and by the NK-1 receptor antagonist administered in the method of treatment of the present invention reducing pulmonary edema formation in brain injured animals.

[6] = test system: Male Sprague Dawley rats; assay: Exploratory behavior and self-grooming (post-traumatic depression) after brain injury; conditions: brain injured rats, compared with non-injured animals

## Cc1ccccc1-c1cc(N2CCN(C)CC2)ncc1C(=O)N(C)Cc1cc(C(F)(F)F)cc(C(F)(F)F)c1 [N-(3,5-bis-trifluoromethyl-benzyl)-N-methyl-6-(4-methyl-piperazin-1-yl)-4-o-tolyl-nicotinamide]
[1]
  motor outcome (Rotarod Motor Score) after brain injury: significantly better motor outcome
[2]; at 24 h / at any time point after injury, pre-injury within 20 sec
  latency to escape the aversive stimuli (Barnes Cognitive Score): did not demonstrate an increased latency
[2]; days 2-10 post-injury
  latency to escape the aversive stimuli, course over the ensuing 9 days: improved with each assessment
[3]
  mortality: 0%
[4]
  Evans Blue accumulation in brain relative to saline treated animals: 18%
[5]; compared with any other treatment group
  weaning off of the ventilator: far more quickly
[5]; compared with saline and MK801 treated counterparts
  respiratory pattern: more stable respiratory pattern
[6]
  exploratory behavior and self-grooming: not significantly different from non-injured animals

Source: patent publication US20110053954A1, “METHOD OF TREATMENT AND/OR PREVENTION OF BRAIN, SPINAL OR NERVE INJURY” (priority 2001, published 2011)
